A value given as a limit tells only on which side of the number the result lay.

Sequence of Complement factor D (P00746 whole entry): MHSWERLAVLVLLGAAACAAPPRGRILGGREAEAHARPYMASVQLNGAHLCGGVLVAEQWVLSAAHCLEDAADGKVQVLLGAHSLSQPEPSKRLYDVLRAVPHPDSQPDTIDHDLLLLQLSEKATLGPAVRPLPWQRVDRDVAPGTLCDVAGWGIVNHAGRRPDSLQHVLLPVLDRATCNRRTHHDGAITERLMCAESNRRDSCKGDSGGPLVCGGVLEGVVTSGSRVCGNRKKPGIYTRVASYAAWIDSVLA

This assay addresses Complement factor D (Homo sapiens, UniProt P00746). Briefly: Human Factor D Assay: Human Factor D (purified from human serum, Complement Technology, Inc.) at 80 nM final concentration is incubated with test compound at various concentrations for 5 min at room temperature in 50 mM Tris, 1M NaCl, pH 7.5. A synthetic substrate Z-L-Lys-SBzl and DTNB (Ellman's reagent) are added to final concentrations of 100 μM each. Absorbance at 405 nm (A405) is recorded at 30 second intervals for 30 min using a microplate spectrophotometer. IC50 values are calculated by nonlinear regression of Complement Factor D reaction rates as a function of test compound concentration.
Usually IC50 stands for the concentration needed to halve the response being measured. For `CC(=O)c1nn(CC(=O)N2C[C@H](F)C[C@H]2C(=O)Nc2cccc(Br)n2)c2ccc(C3OCC(N)CO3)cc12` (stereo partly specified), the IC50 was below 1 µM.

In the case of `CC(=O)c1nn(CC(=O)N2[C@H](C(=O)Nc3nc(Br)ccc3C)C[C@@]3(C)C[C@@H]23)c2ccc(N)cc12`, the IC50 was below 1 µM. In the case of `CC(=O)c1nn(CC(=O)N2[C@H](C(=O)Nc3cccc(Br)n3)C[C@@]3(C)C[C@@H]23)c2c(C)cccc12` it was below 1 µM. In the case of `CC(=O)c1nn(CC(=O)N2[C@H](C(=O)Nc3nc(Br)ccc3C)C[C@@]3(C)C[C@@H]23)c2c(C)cccc12` it was below 1 µM. `CC(=O)c1nn(CC(=O)N2[C@H](C(=O)Nc3nc(Br)ccc3C)C[C@@]3(C)C[C@@H]23)c2ccc(N(C)C)cc12`: the IC50 is below 1 µM. In the case of `CC(=O)c1nn(CC(=O)N2[C@H](C(=O)Nc3cccc(Br)n3)C[C@@]3(C)C[C@@H]23)c2ccc(NC(=O)N3CCC(F)(F)C3)cc12` it was below 1 µM.
